Data set [1] deals with Prostaglandin G/H synthase 1 (Homo sapiens) (UniProt P23219). The data set can be described thus: Binding affinity to COX1 (unknown origin).
For data set [2], the system named is Rattus norvegicus. Put plainly: Gastrointestinal toxicity in Rattus norvegicus Wistar (rat) assessed as induction of duodenum macroscopic damage at 20 mg/kg, po measured on day 8. Also on record: dose 20 mg/kg, route oral. To be noted: in vivo. The class given is organism-based.
Data set [3] relates to Rattus norvegicus. The data set can be described thus: Anti-inflammatory activity in Rattus norvegicus Wistar (rat) assessed as decrease in cotton pellet-induced granuloma weight at 20 mg/kg, po measured on day 8. The format is functional, organism-based. Also on record: dose 20 mg/kg.
Data set [4] relates to Rattus norvegicus. Put plainly: Gastrointestinal toxicity in Rattus norvegicus Wistar (rat) assessed as induction of stomach macroscopic damage at 20 mg/kg, po measured on day 8. The class given is organism-based. On the set-up: dose 20 mg/kg, route oral. The note with it: in vivo.
The target of data set [5] is T1, Prostaglandin G/H synthase 2 (Homo sapiens) (UniProt P35354).
T1 sequence (whole entry): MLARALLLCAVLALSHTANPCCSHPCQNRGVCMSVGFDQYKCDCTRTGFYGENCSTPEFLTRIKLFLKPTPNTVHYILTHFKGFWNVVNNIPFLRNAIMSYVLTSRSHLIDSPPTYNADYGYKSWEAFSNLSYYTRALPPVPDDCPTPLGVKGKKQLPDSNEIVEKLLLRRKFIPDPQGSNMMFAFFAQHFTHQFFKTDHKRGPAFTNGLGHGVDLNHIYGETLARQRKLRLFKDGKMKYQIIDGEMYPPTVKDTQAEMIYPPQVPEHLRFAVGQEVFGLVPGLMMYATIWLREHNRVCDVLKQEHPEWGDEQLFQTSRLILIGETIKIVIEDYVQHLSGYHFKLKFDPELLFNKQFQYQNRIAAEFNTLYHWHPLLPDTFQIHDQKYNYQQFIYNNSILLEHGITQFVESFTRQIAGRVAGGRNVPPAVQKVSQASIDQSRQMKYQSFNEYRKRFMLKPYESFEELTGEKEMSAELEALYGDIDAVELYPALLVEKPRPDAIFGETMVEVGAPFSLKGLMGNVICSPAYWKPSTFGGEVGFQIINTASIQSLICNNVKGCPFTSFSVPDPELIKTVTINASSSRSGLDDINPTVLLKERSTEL
The data set can be described thus: Binding affinity to COX2 (unknown origin).

Data set [6] deals with T2, Prostaglandin G/H synthase 1 (Ovis aries) (UniProt P05979).
T2 sequence (whole entry): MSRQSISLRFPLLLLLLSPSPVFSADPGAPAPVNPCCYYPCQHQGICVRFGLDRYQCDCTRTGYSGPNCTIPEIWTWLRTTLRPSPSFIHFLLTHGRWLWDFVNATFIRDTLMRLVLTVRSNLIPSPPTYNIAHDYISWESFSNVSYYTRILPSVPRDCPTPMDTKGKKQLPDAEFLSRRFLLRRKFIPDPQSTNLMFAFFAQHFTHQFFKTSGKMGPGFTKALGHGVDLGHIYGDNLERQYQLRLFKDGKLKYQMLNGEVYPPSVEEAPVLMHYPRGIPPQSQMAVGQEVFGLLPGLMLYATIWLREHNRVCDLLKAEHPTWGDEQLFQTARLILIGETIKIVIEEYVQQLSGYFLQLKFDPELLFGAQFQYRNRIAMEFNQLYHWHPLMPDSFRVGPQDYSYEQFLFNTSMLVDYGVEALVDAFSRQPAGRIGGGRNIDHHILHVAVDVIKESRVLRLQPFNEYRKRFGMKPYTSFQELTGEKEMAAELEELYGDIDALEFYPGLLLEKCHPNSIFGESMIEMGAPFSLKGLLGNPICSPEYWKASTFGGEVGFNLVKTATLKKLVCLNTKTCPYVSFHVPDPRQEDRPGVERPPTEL
The data set can be described thus: Inhibition of Ovis aries (sheep) COX1 at 0.1 uM by colorimetric analysis.

The subject of data set [7] is Rattus norvegicus. The data set can be described thus: Anti-inflammatory activity in Rattus norvegicus Wistar (rat) assessed as decrease in cotton pellet-induced total weight of granuloma at 20 mg/kg, po measured on day 8. The format is functional, organism-based. On the set-up: dose 20 mg/kg.
The test system of data set [8] is Rattus norvegicus. The data set can be described thus: Anti-inflammatory activity in Rattus norvegicus Wistar (rat) assessed as decrease in cotton pellet-induced dry weight of granuloma at 20 mg/kg, po measured on day 8. On the set-up: dose 20 mg/kg. The class given is functional, organism-based.
For data set [9], the system named is Rattus norvegicus. Put plainly: Anti-inflammatory activity in Rattus norvegicus Wistar (rat) assessed as decrease in cotton pellet-induced wet weight of granuloma at 20 mg/kg, po measured on day 8. The class given is functional, organism-based. On the set-up: dose 20 mg/kg.

Activity and inhibition data for nine molecules are collected here from ChEMBL document CHEMBL3045608, “Docking simulations, synthesis, and anti-inflammatory activity evaluation of 2-(N-alkyl)amino-3-nitroimidazo[1,2-a]pyridines” (Med Chem Res, 2012).

The source made the active and inactive calls. The calls are words filed in the database; no cut-off is given here.

The term inhibition denotes the change of the read-out against control, counted positive when it falls.

Prostaglandin G/H synthase 1 (Homo sapiens), sequence (P23219 whole entry): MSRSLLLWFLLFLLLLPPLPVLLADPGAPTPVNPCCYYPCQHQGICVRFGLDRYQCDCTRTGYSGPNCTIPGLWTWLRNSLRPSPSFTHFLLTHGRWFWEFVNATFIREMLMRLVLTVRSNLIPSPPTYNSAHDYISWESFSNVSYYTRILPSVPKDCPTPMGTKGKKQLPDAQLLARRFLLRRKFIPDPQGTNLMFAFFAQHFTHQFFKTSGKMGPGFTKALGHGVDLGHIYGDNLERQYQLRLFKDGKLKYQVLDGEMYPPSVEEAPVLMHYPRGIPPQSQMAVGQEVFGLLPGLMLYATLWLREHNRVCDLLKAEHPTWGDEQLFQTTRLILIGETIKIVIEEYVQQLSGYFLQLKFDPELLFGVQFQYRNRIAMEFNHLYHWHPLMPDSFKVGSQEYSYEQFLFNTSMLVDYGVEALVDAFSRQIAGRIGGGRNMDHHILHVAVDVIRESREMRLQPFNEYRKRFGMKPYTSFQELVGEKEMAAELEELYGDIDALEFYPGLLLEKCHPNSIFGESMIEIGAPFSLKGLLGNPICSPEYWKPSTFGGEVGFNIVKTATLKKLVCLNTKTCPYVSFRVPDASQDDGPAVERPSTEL

In the case of `CCCCN(CCCC)c1nc2ccccn2c1[N+](=O)[O-]`, the outcome in data set [1] was Active.
Regarding `CC(C)N(c1nc2ccccn2c1[N+](=O)[O-])C(C)C`, the Activity result in the data set on Rattus norvegicus [2] and in the data set on Rattus norvegicus [4] was “Non-toxic” each time. Moreover, the result in the data set with Rattus norvegicus [3] was inactive. The result in data set [1] was Active.
For the molecule `C[C@@H](Nc1nc2ccccn2c1[N+](=O)[O-])c1ccccc1`, the result in data set [5] and in data set [1] was Active.
Consider `O=[N+]([O-])c1c(NC2CC2)nc2ccccn12`, for which the Activity result with Rattus norvegicus [2] and in the data set with Rattus norvegicus [4] was “Non-toxic” throughout. Further, in [6], the inhibition was determined as 3.8%. Also, the outcome (in the data set on Rattus norvegicus [7]; in the data set on Rattus norvegicus [8]; in [1]; with Rattus norvegicus [9]) was Active.
In the case of `O=[N+]([O-])c1c(NCc2ccccc2)nc2ccccn12`, the Activity result with Rattus norvegicus [2] and in the data set on Rattus norvegicus [4] was “Non-toxic” throughout. The outcome with Rattus norvegicus [3] was inactive. For the same molecule, the result in data set [5] and in [1] was Active.
On to `O=[N+]([O-])c1c(NC2CCCCC2)nc2ccccn12`, for which the result in data set [5] and in data set [1] was Active.
On to `CC(C)Nc1nc2ccccn2c1[N+](=O)[O-]`, for which, in data set [1], the result was Active.
As for `C[C@H](Nc1nc2ccccn2c1[N+](=O)[O-])c1ccccc1`, the result in data set [1] was Active.
On the same count and under the same terms, with `CCCCNc1nc2ccccn2c1[N+](=O)[O-]` the entry was “Active”.
